Assay results from PubChem BioAssay (NCI).
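At the GI50, growth is halved. TGI denotes the concentration required for complete inhibition of growth.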

Experiments:
Assay in all cases: NCI tumour cell line growth inhibition, 384-well format
[1] = test system: OVCAR-5 ovarian
[2] = test system: HL-60(TB) leukemia
[3] = test system: EKVX NSCLC
[4] = test system: OVCAR-3 ovarian
[5] = test system: DU-145 prostate
[6] = test system: NCI-H322M lung
[7] = test system: UO-31 renal
[8] = test system: MDA-MB-468 breast
[9] = test system: CCRF-CEM leukemia
[10] = test system: SNB-75 CNS
[11] = test system: SN12C renal
[12] = test system: K-562 leukemia
[13] = test system: COLO 205 colon
[14] = test system: OVCAR-8 ovarian
[15] = test system: MOLT-4 leukemia
[16] = test system: M14 melanoma
[17] = test system: OVCAR-4 ovarian
[18] = test system: A549 NSCLC
[19] = test system: PC-3 prostate
[20] = test system: SR leukemia
[21] = test system: KM12 colon
[22] = test system: NCI-H460 NSCLC
[23] = test system: LOX IMVI melanoma
[24] = test system: SF-539 CNS
[25] = test system: SF-268 CNS
[26] = test system: U251 glioblastoma
[27] = test system: MDA-MB-231 breast
[28] = test system: NCI/ADR-RES ovarian
[29] = test system: HOP-92 NSCLC
[30] = test system: RXF 393 renal
[31] = test system: T-47D breast
[32] = test system: SF-295 CNS
[33] = test system: HCC-2998 colon
[34] = test system: HT29 colon
[35] = test system: IGROV1 ovarian
[36] = test system: SK-MEL-28 melanoma
[37] = test system: MALME-3M melanoma
[38] = test system: MDA-MB-435 melanoma
[39] = test system: SK-MEL-5 melanoma
[40] = test system: SW-620 colon
[41] = test system: CAKI-1 renal
[42] = test system: SNB-19 CNS
[43] = test system: HS 578T breast
[44] = test system: HCT-15 colon
[45] = test system: TK-10 renal
[46] = test system: RPMI-8226 leukemia
[47] = test system: MCF7 breast
[48] = test system: 786-0 renal
[49] = test system: A498 renal

Which GI50 [1] does the source give for CCc1c(C#N)c(S[C@@H](C(N)=O)c2ccccc2)nc(N(C)C)c1C#N here?
Its GI50 is greater than 100 µM.

What about the TGI [1] of the same compound?
The TGI was greater than 100 µM.

And the GI50 [2]?
The GI50 was greater than 100 µM.

And the TGI [2]?
The TGI was greater than 100 µM.

What about the GI50 [3] of the same compound?
The GI50 was greater than 100 µM.

What about the TGI [3] of the same compound?
The TGI was greater than 100 µM.

What about the GI50 [4] of the same compound?
Its GI50 is greater than 100 µM.

What about the TGI [4] of the same compound?
Its TGI is greater than 100 µM.

What about the GI50 [5] of the same compound?
Its GI50 is greater than 100 µM.

What about the TGI [5] of the same compound?
Its TGI is greater than 100 µM.

What about the GI50 [6] of the same compound?
The GI50 was greater than 100 µM.

And the TGI [6]?
Its TGI is greater than 100 µM.

And the GI50 [7]?
The GI50 was greater than 100 µM.

What about the TGI [7] of the same compound?
The TGI was greater than 100 µM.

What about the GI50 [8] of the same compound?
Its GI50 is greater than 100 µM.

What about the TGI [8] of the same compound?
Its TGI is greater than 100 µM.

And the GI50 [9]?
Its GI50 is greater than 100 µM.

And the TGI [9]?
Its TGI is greater than 100 µM.

And the GI50 [10]?
The GI50 was 26.4 µM.

And the TGI [10]?
The TGI was 76.8 µM.

What about the GI50 [11] of the same compound?
The GI50 was greater than 100 µM.

And the TGI [11]?
Its TGI is greater than 100 µM.

And the GI50 [12]?
The GI50 was greater than 100 µM.

What about the TGI [12] of the same compound?
The TGI was greater than 100 µM.

And the GI50 [13]?
Its GI50 is greater than 100 µM.

What about the TGI [13] of the same compound?
The TGI was greater than 100 µM.

And the GI50 [14]?
The GI50 was 3.77 µM.

And the TGI [14]?
The TGI was greater than 100 µM.

What about the GI50 [15] of the same compound?
The GI50 was greater than 100 µM.

What about the TGI [15] of the same compound?
The TGI was greater than 100 µM.

What about the GI50 [16] of the same compound?
The GI50 was greater than 100 µM.

And the TGI [16]?
Its TGI is greater than 100 µM.

And the GI50 [17]?
The GI50 was greater than 100 µM.

What about the TGI [17] of the same compound?
The TGI was greater than 100 µM.

And the GI50 [18]?
The GI50 was greater than 100 µM.

And the TGI [18]?
The TGI was greater than 100 µM.

What about the GI50 [19] of the same compound?
Its GI50 is greater than 100 µM.

And the TGI [19]?
The TGI was greater than 100 µM.

And the GI50 [20]?
The GI50 was 3.05 µM.

And the TGI [20]?
The TGI was greater than 100 µM.

What about the GI50 [21] of the same compound?
The GI50 was greater than 100 µM.

And the TGI [21]?
The TGI was greater than 100 µM.

And the GI50 [22]?
The GI50 was greater than 100 µM.

What about the TGI [22] of the same compound?
Its TGI is greater than 100 µM.

What about the GI50 [23] of the same compound?
The GI50 was greater than 100 µM.

What about the TGI [23] of the same compound?
The TGI was greater than 100 µM.

What about the GI50 [24] of the same compound?
Its GI50 is greater than 100 µM.

What about the TGI [24] of the same compound?
Its TGI is greater than 100 µM.

What about the GI50 [25] of the same compound?
The GI50 was greater than 100 µM.

And the TGI [25]?
The TGI was greater than 100 µM.

What about the GI50 [26] of the same compound?
The GI50 was greater than 100 µM.

What about the TGI [26] of the same compound?
Its TGI is greater than 100 µM.

What about the GI50 [27] of the same compound?
The GI50 was 37.7 µM.

And the TGI [27]?
The TGI was greater than 100 µM.

And the GI50 [28]?
The GI50 was greater than 100 µM.

What about the TGI [28] of the same compound?
The TGI was greater than 100 µM.

What about the GI50 [29] of the same compound?
Its GI50 is 10.6 µM.

What about the TGI [29] of the same compound?
Its TGI is greater than 100 µM.

And the GI50 [30]?
Its GI50 is 2.31 µM.

What about the TGI [30] of the same compound?
The TGI was 6.06 µM.

What about the GI50 [31] of the same compound?
Its GI50 is greater than 100 µM.

And the TGI [31]?
The TGI was greater than 100 µM.

And the GI50 [32]?
Its GI50 is 3.83 µM.

And the TGI [32]?
Its TGI is greater than 100 µM.

And the GI50 [33]?
The GI50 was greater than 100 µM.

What about the TGI [33] of the same compound?
Its TGI is greater than 100 µM.

What about the GI50 [34] of the same compound?
The GI50 was greater than 100 µM.

What about the TGI [34] of the same compound?
Its TGI is greater than 100 µM.

What about the GI50 [35] of the same compound?
The GI50 was greater than 100 µM.

What about the TGI [35] of the same compound?
Its TGI is greater than 100 µM.

And the GI50 [36]?
The GI50 was greater than 100 µM.

And the TGI [36]?
Its TGI is greater than 100 µM.

What about the GI50 [37] of the same compound?
The GI50 was 38.1 µM.

What about the TGI [37] of the same compound?
The TGI was greater than 100 µM.

And the GI50 [38]?
Its GI50 is greater than 100 µM.

What about the TGI [38] of the same compound?
Its TGI is greater than 100 µM.

What about the GI50 [39] of the same compound?
The GI50 was greater than 100 µM.

What about the TGI [39] of the same compound?
Its TGI is greater than 100 µM.

And the GI50 [40]?
Its GI50 is greater than 100 µM.

And the TGI [40]?
Its TGI is greater than 100 µM.

What about the GI50 [41] of the same compound?
Its GI50 is greater than 100 µM.

What about the TGI [41] of the same compound?
The TGI was greater than 100 µM.

What about the GI50 [42] of the same compound?
Its GI50 is greater than 100 µM.

And the TGI [42]?
Its TGI is greater than 100 µM.

And the GI50 [43]?
Its GI50 is 4.58 µM.

What about the TGI [43] of the same compound?
The TGI was greater than 100 µM.

And the GI50 [44]?
The GI50 was greater than 100 µM.

What about the TGI [44] of the same compound?
The TGI was greater than 100 µM.

And the GI50 [45]?
The GI50 was greater than 100 µM.

And the TGI [45]?
Its TGI is greater than 100 µM.

What about the GI50 [46] of the same compound?
Its GI50 is greater than 100 µM.

And the TGI [46]?
The TGI was greater than 100 µM.

And the GI50 [47]?
The GI50 was greater than 100 µM.

What about the TGI [47] of the same compound?
Its TGI is greater than 100 µM.

And the GI50 [48]?
Its GI50 is greater than 100 µM.

What about the TGI [48] of the same compound?
The TGI was greater than 100 µM.

And the GI50 [49]?
The GI50 was greater than 100 µM.

What about the TGI [49] of the same compound?
Its TGI is greater than 100 µM.
